Assays:
Assay type in all cases: cell-based
[1] = test system: Target C CJ mRNA; assay: Gene panel canonical junction qPCR assay, Target C; settings: decrease in CJ mRNA levels, RT-qPCR
Experimental: (§1) Compounds described herein were used to modulate RNA transcript abundance in cells. The expression of a target mRNA was measured by detecting the formation of an exon-exon junction in the canonical transcript (CJ). A compound mediated exon-inclusion event was detected by observing an increase in formation of a new junction with an alternative exon (AJ). Real-time qPCR assays were used to detect these splicing switches and interrogate the potency of various compounds towards different target genes. A high-throughput real time quantitative PCR (RT-qPCR) assay was developed to measure these two isoforms of the mRNA (CJ and AJ) for an exemplary gene, HTT, together with a control housekeeping gene, GAPDH or GUSB or PPIA, used for normalization. Briefly, the A673 or K562 cell line was treated with various compounds described herein (e.g., compounds of Formula (I)). After treatment, the levels of the HTT mRNA targets were determined from each sample of cell lysate by cDNA synthesis followed by qPCR.
(§2) The A673 cell line was cultured in DMEM with 10% FBS. Cells were diluted with full growth media and plated in a 96-well plate (15,000 cells in 100 ul media per well). The plate was incubated at 37° C. with 5% CO2 for 24 hours to allow cells to adhere. An 11-point 3-fold serial dilution of the compounds was made in DMSO then diluted in media in an intermediate plate. Compounds were transferred from the intermediate plate to the cell plate with the top dose at a final concentration of 10 uM in the well. Final DMSO concentration was kept at or below 0.25%. The cell plate was returned to the incubator at 37° C. with 5% CO2 for an additional 24 hours.
(§3) The K562 cell line was cultured in IMDM with 10% FBS. For K562, cells were diluted with full growth media and plated in either a 96-well plate (50,000 cells in 50 uL media per well) or a 384-well plate (8,000-40,000 cells in 45 uL media per well). An 11-point 3-fold serial dilution of the compounds were made in DMSO then diluted in media in an intermediate plate. Compound was transferred from the intermediate plate to the cell plate with the top dose at a final concentration of 10 uM in the well. Final DMSO concentration was kept at or below 0.25%. Final volume was 100 uL for 96-well plate and 50 uL for 384-well plate. The cell plate was then placed in an incubator at 37° C. with 5% CO2 for 24 hours.
(§4) The cells were then gently washed with 50 uL-100 uL cold PBS before proceeding to addition of lysis buffer. 30 uL-50 uL of room temperature lysis buffer with DNAse I (and optionally RNAsin) was added to each well. Cells were shaken/mixed thoroughly at room temperature for 5-10 minutes for lysis to take place and then 3 uL-5 uL of room temperature stop solution was added and wells were shaken/mixed again. After 2-5 minutes, the cell lysate plate was transferred to ice for RT-qPCR reaction setup. The lysates could also be frozen at −80° C. for later use.
(§5) In some cases, a direct lysis buffer was used. An appropriate volume of 3× lysis buffer (10 mM Tris, 150 mM NaCl, 1.5%-2.5% Igepal and 0.1-1 U/uL RNAsin, pH 7.4) was directly added to either K562 or A673 cells in media and mixed by pipetting 3 times. The plates were then incubated at room temperature with shaking/rocking for 20-50 minutes to allow for lysis to take place. After this time, the cell lysate plate was transferred to ice to set up for the RT-qPCR reactions. The lysates could also be frozen at −80° C. for later use.
(§6) To set up 10 uL RT-qPCR reactions, cell lysates were transferred to 384-well qPCR plates containing the master mix according to the table below. The plates were sealed, gently vortexed, and spun down before the run. The volumes were adjusted accordingly in some instances where the reaction was carried in 20 uL. The table below summarizes the components of the RT-qPCR reactions:
(§7) The RT-qPCR reaction was performed using a QuantStudio (ThermoFisher) under the following fast cycling conditions. […]

[2] = test system: SMN2 CJ mRNA; assay: Gene panel canonical junction qPCR assay, SMN2; settings: decrease in CJ mRNA levels, RT-qPCR
Experimental: as §1, §2, §3, §4, §5, §6, §7

[3] = test system: HTT CJ mRNA; assay: Gene panel canonical junction qPCR assay, HTT; settings: decrease in CJ mRNA levels, RT-qPCR
Experimental: as §1, §2, §3, §4, §5, §6, §7

[4] = test system: HTT mRNA; assay: RT-qPCR splicing assay for HTT mRNA isoforms (canonical junction CJ and alternative junction AJ); settings: A673 or K562 cell line, 24 hours compound treatment; for IC50: decrease in CJ mRNA; for AC50: increase in AJ mRNA
Experimental: as §1
Cells-to-CT 1-step kit: ThermoFisher A25602, Cells-to-CT lysis reagent: ThermoFisher 4391851C, TaqMan™ Fast Virus 1-Step Master Mix: ThermoFisher 4444436 GAPDH: VIC-PL, ThermoFisher 4326317E (Assay: Hs99999905_m1)—used for K562/suspension cell lines GUSB: VIC-PL, ThermoFisher 4326320E (Assay: Hs99999908_m1)—used for K562/suspension cell lines PPIA: VIC-PL, ThermoFisher 4326316E (Assay: Hs99999904_m1)—used for A673/adherent cell lines
as §2, §3, §4
as §5, with “use. […]” for “use.”

Structure (SMILES)	IC50 [1] [nM]	IC50 [2] [nM]	IC50 [3] [nM]	IC50 [4] [nM]	AC50 [4] [nM]
CC1(C)CC(Oc2ccc3c(n2)OCc2cc(-n4cccn4)ccc2-3)CC(C)(C)N1 [Compound 171]	1000 to 10000	100 to 1000	1000 to 10000	1000 to 10000	1000 to 10000
c1cnn(-c2ccc3c(c2)COc2nc(N4CCC5(CCCNC5)C4)ccc2-3)c1 (centres unmarked) [Compound 183]	> 10000	100 to 1000	> 10000	> 10000	> 10000
CN(c1ccc2c(n1)OCc1cc(-n3cc(N)cn3)ccc1-2)[C@@H]1C[C@H]2CC[C@@H](C1)N2 [Compound 172]	100 to 1000	< 100	100 to 1000	100 to 1000	100 to 1000
c1cnn(-c2ccc3c(c2)COc2nc(N4CC5(CCNCC5)C4)ccc2-3)c1 [Compound 167]	> 10000	> 10000	> 10000	> 10000	> 10000
CN(c1ccc2c(n1)COc1cc(-c3cn[nH]c3)ccc1-2)[C@@H]1C[C@H]2CC[C@@H](C1)N2 [Compound 121, (1R,3S,5S)—N-methyl-N-[8-(1H-pyrazol-4-yl)-5H-chromeno[3,4-b]pyridin-3-yl]-8-azabicyclo[3.2.1]octan-3-amine]	100 to 1000	100 to 1000	100 to 1000	100 to 1000	100 to 1000
CN(c1cnc2c(n1)OCc1cc(-c3cn[nH]c3)ccc1-2)[C@@H]1C[C@H]2CC[C@@H](C1)N2 [Compound 144, (exo)-N-methyl-N-[8-(1H-pyrazol-4-yl)-6H-isochromeno[3,4-b]pyrazin-3-yl]-8-azabicyclo[3.2.1]octan-3-amine]	100 to 1000	> 10000	100 to 1000	100 to 1000	100 to 1000
CN(c1ccc2c(n1)OCc1cc(-c3cn[nH]c3)ccc1-2)C1CC(C)(C)NC(C)(C)C1 [Compound 147, N,2,2,6,6-pentamethyl-N-[8-(1H-pyrazol-4-yl)-6H-isochromeno[3,4-b]pyridin-3-yl]piperidin-4-amine]	100 to 1000	> 10000	100 to 1000	100 to 1000	100 to 1000
c1cnn(-c2ccc3c(c2)OCc2nc(N[C@@H]4C[C@H]5CC[C@@H](C4)N5)ccc2-3)c1 [Compound 135, (1R,3S,5S)—N-[8-(pyrazol-1-yl)-5H-chromeno[3,4-b]pyridin-3-yl]-8-azabicyclo[3.2.1]octan-3-amine]	1000 to 10000	1000 to 10000	1000 to 10000	1000 to 10000	1000 to 10000
Cc1cn(-c2ccc3c(c2)COc2nc(N(C)[C@@H]4C[C@H]5CC[C@@H](C4)N5)ccc2-3)cn1 [Compound 164]	100 to 1000	< 100	< 100	< 100	< 100
CN(C)[C@H]1[C@@H]2CN(c3ccc4c(n3)OCc3cc(-n5cccn5)ccc3-4)C[C@@H]21 [Compound 197]	> 10000	> 10000	1000 to 10000	1000 to 10000	> 10000
CN(c1ccc2c(n1)OCCc1cc(-c3cn[nH]c3)ccc1-2)[C@@H]1C[C@H]2CC[C@@H](C1)N2 [Compound 146]	> 10000	> 10000	1000 to 10000	1000 to 10000	1000 to 10000
CC1(C)CC(Nc2ccc3c(n2)CCOc2cc(-n4cccn4)ccc2-3)CC(C)(C)N1 [Compound 137, 13-(pyrazol-1-yl)-N-(2,2,6,6-tetramethylpiperidin-4-yl)-10-oxa-6-azatricyclo [9.4.0.0^[2,7]]pentadeca-1(11),2(7),3,5,12,14-hexaen-5-amine]	1000 to 10000	> 10000	> 10000	1000 to 10000	1000 to 10000
c1cnn(-c2ccc3c(c2)COc2nc(N4CCNCC4)ccc2-3)c1 [Compound 173]	> 10000	1000 to 10000	> 10000	> 10000	> 10000
CN(c1ccc2c(n1)OCc1cc(-c3cn[nH]c3)ccc1-2)[C@@H]1C[C@H]2CC[C@@H](C1)N2 [Compound 108, (1R,5S)—N-Methyl-N-[8-(1H-pyrazol-4-yl)-6H-isochromeno[3,4-b]pyridin-3-yl]-8-azabicyclo [3.2.1] octan-3-amine]	< 100	< 100	< 100	< 100	< 100
CC1(C)CC(Oc2ccc3c(n2)OCc2cc(-n4cccn4)ccc2-3)CCN1 (centres unmarked) [Compound 186]	> 10000	100 to 1000	1000 to 10000	1000 to 10000	1000 to 10000
c1cnn(-c2ccc3c(c2)COc2nc(N4CCC5(CCNCC5)C4)ccc2-3)c1 [Compound 182]	> 10000	> 10000	> 10000	> 10000	> 10000
c1cnn(-c2ccc3c(c2)COc2nc(N[C@@H]4C[C@H]5CCC[C@@H](C4)N5)ccc2-3)c1 [Compound 190]	100 to 1000	< 100	< 100	< 100	100 to 1000
CN1C[C@@H]2[C@H](C1)[C@H]2N(C)c1ccc2c(n1)OCc1cc(-n3cccn3)ccc1-2 [Compound 196]	> 10000	> 10000	> 10000	> 10000	> 10000
CN(c1ccc2c(n1)OCc1cc(-n3cccn3)ccc1-2)[C@@H]1C[C@H]2CCC[C@@H](C1)N2 [Compound 178]	100 to 1000	< 100	< 100	< 100	< 100
CN(c1ccc2c(n1)OCc1cc(-n3cccn3)ccc1-2)C1CC(C)(C)NC(C)(C)C1 [Compound 148, N,2,2,6,6-pentamethyl-N-[8-(pyrazol-1-yl)-6H-isochromeno[3,4-b]pyridin-3-yl]piperidin-4-amine]	1000 to 10000	100 to 1000	1000 to 10000	1000 to 10000	1000 to 10000
c1cnn(-c2ccc3c(c2)COc2nc(N[C@@H]4C[C@H]5CC[C@@H](C4)N5)ccc2-3)c1 [Compound 179]	100 to 1000	100 to 1000	100 to 1000	100 to 1000	100 to 1000
CN(c1ccc2c(n1)OCc1cc(-n3cccn3)ccc1-2)C1CCNCC1 [Compound 175]	> 10000	1000 to 10000	> 10000	> 10000	1000 to 10000
